system: Utrophin A promoter linked to a luciferase reporter gene; experiment: Luciferase reporter assay (murine H2K cells); assay type: cell-based; settings: Mus musculus, H2K mdx, luciferase level relative to control; H2K/mdx/Utro A reporter cells; compound 10 μM final concentration; read-out: Activity
Outline: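 Immortalized mdx mouse H2K myoblasts stably carrying a ~5 kb utrophin A promoter–luciferase construct, kept at 33° C, 10% CO2. After 24 hrs plating, compound added at 10 μM final for 48 hrs; luciferase light output read after in-situ lysis.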

SMILES	activity at 10 µM
Clc1ccc(-c2nc3cc(-c4ccc(Cl)nc4)ccc3o2)cc1 [Example 314, 2-(4-chlorophenyl)-5-(6-chloropyridin-3-yl)benzo[d]oxazole]	< 200%
Fc1ccc(-c2ccc3oc(-c4ccc(Cl)cc4)nc3c2)cn1 [Example 315, 2-(4-chlorophenyl)-5-(6-fluoropyridin-3-yl)benzo[d]oxazole]	< 200%
Clc1ccc(-c2nc3cc(-c4ccc(N5CCOCC5)nc4)ccc3o2)cc1 [Example 316, 2-(4-chlorophenyl)-5-(6-morpholinopyridin-3-yl)benzo[d]oxazole]	< 200%
CC(=O)Nc1ccc(-c2nc3cc(Cl)ccc3o2)cc1 [Example 317, N-(4-(5-chlorobenzo[d]oxazol-2-yl)phenyl)acetamide]	301 to 400%
CC(C)C(=O)Nc1ccc(-c2nc3cc(Cl)ccc3o2)cc1 [Example 318, N-(4-(5-chlorobenzo[d]oxazol-2-yl)phenyl)isobutyramide]	201 to 300%
O=C(Nc1ccc(-c2nc3cc(Cl)ccc3o2)cc1)c1cccs1 [Example 319, N-(4-(5-chlorobenzo[d]oxazol-2-yl)phenyl)thiophene-2-carboxamide]	< 200%
CC(C)C(=O)N(C)c1ccc2oc(-c3ccc(Cl)cc3)nc2c1 [Example 320, N-(2-(4-chlorophenyl)benzo[d]oxazol-5-yl)-N-methylisobutyramide]	201 to 300%
CC(C)(C)c1ccc2oc(-c3ccc(Cl)cc3)nc2c1 [Example 321, 5-tert-butyl-2-(4-chlorophenyl)benzo[d]oxazole]	> 401%
CC(C)CN(C)c1ccc2oc(-c3ccc(Cl)cc3)nc2c1 [Example 322, 2-(4-chlorophenyl)-N-isobutyl-N-methylbenzo[d]oxazol-5-amine]	< 200%
COCCC(=O)Nc1ccc2oc(-c3ccc(Cl)cc3)nc2c1 [Example 323, N-(2-(4-chlorophenyl)benzo[d]oxazol-5-yl)-3-methoxypropanamide]	> 401%
O=[N+]([O-])c1ccc2nc(-c3ccc(Cl)c(Cl)c3)oc2c1 [Example 324, 2-(3,4-dichlorophenyl)-6-nitrobenzo[d]oxazole]	201 to 300%
NS(=O)(=O)c1ccc2oc(-c3ccc(Cl)cc3)nc2c1 [Example 325, 2-(4-chlorophenyl)benzo[d]oxazole-5-sulfonamide]	> 401%
O=[N+]([O-])c1cc2oc(-c3ccc(Cl)cc3)nc2cc1Cl [Example 326, 5-chloro-2-(4-chlorophenyl)-6-nitrobenzo[d]oxazole]	301 to 400%
COc1cccc(-c2ccc3oc(-c4ccc(Cl)cc4)nc3c2)n1 [Example 327, 2-(4-chlorophenyl)-5-(6-methoxypyridin-2-yl)benzo[d]oxazole]	< 200%
Nc1cccc(-c2ccc3oc(-c4ccc(Cl)cc4)nc3c2)c1 [Example 328, 3-(2-(4-chlorophenyl)benzo[d]oxazol-5-yl)aniline]	> 401%
Nc1ccc(-c2ccc3oc(-c4ccc(Cl)cc4)nc3c2)cc1 [Example 329, 4-(2-(4-chlorophenyl)benzo[d]oxazol-5-yl)aniline]	> 401%
Clc1ccc2oc(-c3ccncc3)nc2c1 [Example 330, 5-chloro-2-(pyridin-4-yl)benzo[d]oxazole]	< 200%
Clc1ccc2nc(-c3ccncc3)oc2c1 [Example 331, 6-chloro-2-(pyridin-4-yl)benzo[d]oxazole]	< 200%
CC(=O)Nc1ccc(-c2nc3ccc(Cl)cc3o2)cc1 [Example 332, N-(4-(6-chlorobenzo[d]oxazol-2-yl)phenyl)acetamide]	301 to 400%
CC(C)C(=O)Nc1ccc(-c2nc3ccc(Cl)cc3o2)cc1 [Example 333, N-(4-(6-chlorobenzo[d]oxazol-2-yl)phenyl)isobutyramide]	201 to 300%
O=C(Nc1ccc(-c2nc3ccc(Cl)cc3o2)cc1)c1cccs1 [Example 334, N-(4-(6-chlorobenzo[d]oxazol-2-yl)phenyl)thiophene-2-carboxamide]	< 200%
CC(C)CN(CC(C)C)c1ccc2oc(-c3ccc(Cl)cc3)nc2c1 [Example 335, 2-(4-chlorophenyl)-N,N-diisobutylbenzo[d]oxazol-5-amine]	< 200%
Nc1ccc(-c2nc3cc(Br)ccc3o2)cc1 [Example 336, 4-(5-bromobenzo[d]oxazol-2-yl)aniline]	> 401%
Nc1ccc(C(=O)Nc2ccc(-c3nc4cc(Br)ccc4o3)cc2)cc1 [Example 337, 4-amino-N-(4-(5-bromobenzo[d]oxazol-2-yl)phenyl)benzamide]	< 200%
Nc1ccc(-c2ccc3oc(-c4ccc(Cl)cc4)nc3c2)cn1 [Example 338, 5-(2-(4-chlorophenyl)benzo[d]oxazol-5-yl)pyridin-2-amine]	> 401%

SMILES	activity at 10 µM
Clc1ccc(-c2cc3cc(-c4ccccc4)ccc3[nH]2)cc1 [Example 339, 2-(4-chlorophenyl)-5-phenyl-1H-indole]	< 200%
CC(C)C(=O)Nc1ccc2oc(-c3ccc(F)cc3Cl)nc2c1 [Example 340, N-(2-(2-chloro-4-fluorophenyl)benzo[d]oxazol-5-yl)isobutyramide]	> 401%
CC(C)C(=O)Nc1ccc2oc(-c3c(F)cccc3Cl)nc2c1 [Example 341, N-(2-(2-chloro-6-fluorophenyl)benzo[d]oxazol-5-yl)isobutyramide]	< 200%
CC(C)C(=O)Nc1ccc2oc(-c3cccc(Cl)c3F)nc2c1 [Example 342, N-(2-(3-chloro-2-fluorophenyl)benzo[d]oxazol-5-yl)isobutyramide]	> 401%
CC(C)C(=O)Nc1ccc2oc(-c3ccc(Cl)cc3F)nc2c1 [Example 343, N-(2-(4-chloro-2-fluorophenyl)benzo[d]oxazol-5-yl)isobutyramide]	> 401%
CC(C)C(=O)Nc1ccc2oc(-c3cc(F)ccc3Cl)nc2c1 [Example 344, N-(2-(2-chloro-5-fluorophenyl)benzo[d]oxazol-5-yl)isobutyramide]	< 200%
O=C(CC(F)(F)F)Nc1ccc2oc(-c3ccc(Cl)cc3)nc2c1 [Example 345, N-(2-(4-chlorophenyl)benzo[d]oxazol-5-yl)-3,3,3-trifluoropropanamide]	301 to 400%
O=C(Nc1ccc2oc(-c3ccc(Cl)cc3)nc2c1)C1CCCC1 [Example 346, N-(2-(4-chlorophenyl)benzo[d]oxazol-5-yl)cyclopentanecarboxamide]	< 200%
CC(C)C(=O)Nc1cc2oc(-c3ccc(Cl)cc3)nc2cc1Cl [Example 347, N-(5-chloro-2-(4-chlorophenyl)benzo[d]oxazol-6-yl)isobutyramide]	201 to 300%
O=[N+]([O-])c1ccc2oc(-c3ccc(OC(F)(F)F)cc3)nc2c1 [Example 348, 5-nitro-2-(4-(trifluoromethoxy)phenyl)benzo[d]oxazole]	201 to 300%
CC(C)C(=O)Nc1ccc2oc(C3CCOCC3)nc2c1 [Example 349, N-(2-(tetrahydro-2H-pyran-4-yl)benzo[d]oxazol-5-yl)isobutyramide]	< 200%
Nc1ccc2oc(-c3ccc(OC(F)(F)F)cc3)nc2c1 [Example 350, 2-(4-(trifluoromethoxy)phenyl)benzo[d]oxazol-5-amine]	201 to 300%
O=C(Nc1ccc2oc(-c3ccc(Cl)c(Cl)c3)nc2c1)C1CC1 [Example 351, N-(2-(3,4-dichlorophenyl)benzo[d]oxazol-5-yl)cyclopropanecarboxamide]	> 401%
O=C(CC(F)(F)F)Nc1ccc2oc(-c3ccc(Cl)c(Cl)c3)nc2c1 [Example 352, N-(2-(3,4-dichlorophenyl)benzo[d]oxazol-5-yl)-3,3,3-trifluoropropanamide]	> 401%
O=C(Nc1ccc2nc(-c3ccc(Cl)cc3)oc2c1)C1CC1 [Example 353, N-(2-(4-chlorophenyl)benzo[d]oxazol-6-yl)cyclopropanecarboxamide]	201 to 300%
CC(C)C(=O)Nc1ccc2nc(-c3cccc(Cl)c3Cl)oc2c1 [Example 354, N-(2-(2,3-dichlorophenyl)benzo[d]oxazol-6-yl)isobutyramide]	301 to 400%
CC(C)C(=O)Nc1ccc2oc(-c3ccc(OC(F)(F)F)cc3)nc2c1 [Example 355, N-(2-(4-(trifluoromethoxy)phenyl)benzo[d]oxazol-5-yl)isobutyramide]	< 200%
Nc1ccc(-c2nc3cc(-c4ccc(Cl)cc4)ccc3o2)cc1 [Example 356, 4-(5-(4-chlorophenyl)benzo[d]oxazol-2-yl)aniline]	< 200%
O=[N+]([O-])c1ccc2oc(N3CCOCC3)nc2c1 [Example 357, 2-morpholino-5-nitrobenzo[d]oxazole]	< 200%
CC(=O)Nc1ccc(-c2ccc3oc(-c4ccc(Cl)cc4)nc3c2)cn1 [Example 358, N-(5-(2-(4-chlorophenyl)benzo[d]oxazol-5-yl)pyridin-2-yl)acetamide]	< 200%
CC(=O)Nc1ccc(-c2nc3cc(Br)ccc3o2)cc1 [Example 359, N-(4-(5-bromobenzo[d]oxazol-2-yl)phenyl)acetamide]	> 401%
Nc1ccc2oc(N3CCOCC3)nc2c1 [Example 360, 2-morpholinobenzo[d]oxazol-5-amine]	< 200%
O=C(Nc1ccc2oc(-c3ccc(Cl)cc3)nc2c1)[C@@H]1CCCN1 [Example 362, (S)-N-(2-(4-chlorophenyl)benzo[d]oxazol-5-yl)pyrrolidine-2-carboxamide]	201 to 300%
O=C(CC(F)(F)F)Nc1ccc2oc(-c3cccc(Cl)c3Cl)nc2c1 [Example 363, N-(2-(2,3-dichlorophenyl)benzo[d]oxazol-5-yl)-3,3,3-trifluoropropanamide]	> 401%

same assay, conditions: luciferase level relative to control; H2K/mdx/Utro A reporter cells; compound 10 μM final concentration

SMILES	Activity
Clc1ccc(-c2nc3cc4c(cc3o2)OCO4)cc1Cl [Example 361, 2-(3,4-chlorophenyl)-5,6-methylenedioxybenzoxazole]	+ (Up to 200% relative to control)

Reference: patent publication US8501713B2, “Drug combinations for the treatment of duchenne muscular dystrophy” (Summit Corporation PLC, priority 2007, dated 2013)
